Results as given in ChEMBL document CHEMBL3045068, “Effect of methomyl and oxamyl soil applications on early control of nematodes and insects” (Pest Manag Sci, 2011).
≈ marks a conversion by molar mass, not a printed value.

How the values were obtained:
Meloidogyne incognita [1] = assay: Nematicidal activity against second juvenile stage of Meloidogyne incognita (root-knot nematode) infected lima bean plant assessed as root dry weight at 2 kg ai/ha applied to soil measured during planting under green house conditions (reference value: 0.5 +/- 0.052 g); assay type: functional
Pisum sativum [2] = assay: Phytotoxicity in Pisum sativum (pea) assessed as plant fresh weight at 3 kg ai/ha applied to soil measured up to 14 days post planting at 27 degC under green house conditions (reference value: 3.9 +/- 0.83 g); assay type: organism-based; settings: lathyrus oleraceus, in vivo, other, 336 h
Pisum sativum [3] = assay: Phytotoxicity in Pisum sativum (pea) assessed as plant height at 2 kg ai/ha applied to soil measured up to 7 days post planting at 19 degC (reference value: 6.2 +/- 0.6 cm); assay type: organism-based; settings: lathyrus oleraceus, in vivo, other, 168 h
Meloidogyne incognita [4] = assay: Nematicidal activity against second juvenile stage of Meloidogyne incognita (root-knot nematode) assessed as mortality after 72 hr; assay type: functional
Spodoptera exigua = assay: Insecticidal activity against Spodoptera exigua infested tomato assessed as mortality applied through foliar spray after 72 hr; assay type: functional
Meloidogyne incognita [5] = assay: Nematicidal activity against second juvenile stage of Meloidogyne incognita (root-knot nematode) infected lima bean plant assessed as root dry weight at 2 kg ai/ha applied to soil measured up to 7 days post planting under green house conditions (reference value: 0.5 +/- 0.052 g); assay type: functional
Meloidogyne incognita [6] = assay: Nematicidal activity against second juvenile stage of Meloidogyne incognita (root-knot nematode) infected lima bean plant assessed as emergence at 4 kg ai/ha applied to soil measured up to 14 days post planting under green house conditions (reference value: 83 +/- 5%); assay type: functional
Gossypium hirsutum = assay: Phytotoxicity in Gossypium hirsutum (cotton) assessed as concentration required to cause foliar edge burn applied to soil after 4 weeks; assay type: organism-based; settings: in vivo, other, 672 h
Meloidogyne incognita [7] = assay: Nematicidal activity against second juvenile stage of Meloidogyne incognita (root-knot nematode) infected pea plant assessed as root fresh weight at 4 kg ai/ha applied to soil measured up to 14 days post planting under green house conditions (reference value: 4.3 +/- 0.56 g); assay type: functional
Meloidogyne incognita [8] = assay: Nematicidal activity against second juvenile stage of Meloidogyne incognita (root-knot nematode) infected lima bean plant assessed as shoot dry weight at 4 kg ai/ha applied to soil measured up to 14 days post planting under green house conditions (reference value: 1.84 +/- 0.18 g); assay type: functional
Meloidogyne incognita [9] = assay: Nematicidal activity against second juvenile stage of Meloidogyne incognita (root-knot nematode) infected pea plant assessed as plant emergence at 3 kg ai/ha applied to soil measured up to 7 days post planting under green house conditions (reference value: 75 +/- 13%); assay type: functional
Meloidogyne incognita [10] = assay: Nematicidal activity against second juvenile stage of Meloidogyne incognita (root-knot nematode) infected lima bean plant assessed as emergence at 2 kg ai/ha applied to soil measured during planting under green house conditions (reference value: 83 +/- 5%); assay type: functional
Pisum sativum [11] = assay: Phytotoxicity in Pisum sativum (pea) assessed as emergence at 4 kg ai/ha applied to soil measured up to 7 days post planting at 27 degC under green house conditions (reference value: 70 +/- 3.3%); assay type: organism-based; settings: lathyrus oleraceus, in vivo, other, 168 h
Meloidogyne incognita [12] = assay: Nematicidal activity against second juvenile stage of Meloidogyne incognita (root-knot nematode) infected lima bean plant assessed as emergence at 3 kg ai/ha applied to soil measured up to 7 days post planting under green house conditions (reference value: 83 +/- 5%); assay type: functional
Phaseolus lunatus [13] = assay: Phytotoxicity in Phaseolus lunatus (lima bean) plant assessed as emergence at 0.56 kg ai/ha under green house conditions applied to soil (reference value: 70 +/- 16%); assay type: organism-based; settings: in vivo, other
Meloidogyne incognita [14] = assay: Nematicidal activity against second juvenile stage of Meloidogyne incognita (root-knot nematode) infected pea plant assessed as plant fresh weight at 4 kg ai/ha applied to soil measured up to 7 days post planting under green house conditions (reference value: 4.3 +/- 0.56 g); assay type: functional
Pisum sativum [15] = assay: Phytotoxicity in Pisum sativum (pea) assessed as plant fresh weight at 4 kg ai/ha applied to soil measured up to 7 days post planting at 27 degC under green house conditions (reference value: 3.9 +/- 0.83 g); assay type: organism-based; settings: lathyrus oleraceus, in vivo, other, 168 h
Phaseolus lunatus [16] = assay: Phytotoxicity in Phaseolus lunatus (lima bean) plant assessed as emergence at 2.12 kg ai/ha applied to soil measured up to 7 days under green house conditions (reference value: 70 +/- 16%); assay type: organism-based; settings: in vivo, other, 168 h
Pisum sativum [17] = assay: Phytotoxicity in Pisum sativum (pea) assessed as plant height at 3 kg ai/ha applied to soil measured up to 7 days post planting at 27 degC under green house conditions (reference value: 9.6 +/- 1.5 cm); assay type: organism-based; settings: lathyrus oleraceus, in vivo, other, 168 h
Pisum sativum [18] = assay: Phytotoxicity in Pisum sativum (pea) assessed as plant fresh weight at 2 kg ai/ha applied to soil measured up to 7 days post planting at 27 degC under green house conditions (reference value: 3.9 +/- 0.83 g); assay type: organism-based; settings: lathyrus oleraceus, in vivo, other, 168 h
Meloidogyne incognita [19] = assay: Nematicidal activity against second juvenile stage of Meloidogyne incognita (root-knot nematode) infected pea plant assessed as root dry weight at 2 kg ai/ha applied to soil measured up to 7 days post planting under green house conditions (reference value: 0.25 +/- 0.041 g); assay type: functional
Meloidogyne incognita [20] = assay: Nematicidal activity against second juvenile stage of Meloidogyne incognita (root-knot nematode) infected lima bean plant assessed as emergence at 1 kg ai/ha applied to soil measured during planting under green house conditions (reference value: 83 +/- 5%); assay type: functional
Meloidogyne incognita [21] = assay: Nematicidal activity against second juvenile stage of Meloidogyne incognita (root-knot nematode) infected pea plant assessed as emergence at 4 kg ai/ha applied to soil measured up to 14 days post planting under green house conditions (reference value: 75 +/- 13%); assay type: functional
Meloidogyne incognita [22] = assay: Nematicidal activity against second juvenile stage of Meloidogyne incognita (root-knot nematode) infected lima bean plant assessed as shoot dry weight at 2 kg ai/ha applied to soil measured during planting under green house conditions (reference value: 1.84 +/- 0.18 g); assay type: functional
Phaseolus lunatus [23] = assay: Phytotoxicity in Phaseolus lunatus (lima bean) root assessed as root dry weight at 2.12 kg ai/ha applied to soil measured up to 7 days under green house conditions (reference value: 0.36 +/- 0.071 g); assay type: organism-based; settings: in vivo, other, 168 h
Meloidogyne incognita [24] = assay: Nematicidal activity against second juvenile stage of Meloidogyne incognita (root-knot nematode) infected pea plant assessed as emergence at 4 kg ai/ha applied to soil measured up to 7 days post planting under green house conditions (reference value: 75 +/- 13%); assay type: functional
Phaseolus lunatus [25] = assay: Phytotoxicity in Phaseolus lunatus (lima bean) plant assessed as plant dry weight at 1.56 kg ai/ha applied to soil measured up to 7 days under green house conditions (reference value: 1.20 +/- 0.21 g); assay type: organism-based; settings: in vivo, other, 168 h
Phaseolus lunatus [26] = assay: Phytotoxicity in Phaseolus lunatus (lima bean) root assessed as root dry weight at 2.56 kg ai/ha applied to soil measured up to 14 days under green house conditions (reference value: 0.36 +/- 0.071 g); assay type: organism-based; settings: in vivo, other, 336 h
Meloidogyne incognita [27] = assay: Nematicidal activity against second juvenile stage of Meloidogyne incognita (root-knot nematode) infested soil containing cucumber seeds assessed as mortality applied post seed germination measured after 7 days under green house conditions; assay type: functional

`CNC(=O)ON=C(C)SC` [METHOMYL] gave an Activity (Meloidogyne incognita [1]) of 0.36 g, an Activity (Pisum sativum [2]) of 3.3 g and an Activity (Pisum sativum [3]) of 7.3 cm. It also gave an LC90 (Meloidogyne incognita [4]) of 9.8 mg/L (≈ 60.4 µM), an LC50 (Meloidogyne incognita [4]; Meloidogyne incognita, Juvenile stage, 72 h) of 3.6 mg/L (≈ 22.2 µM) and an LC90 (Spodoptera exigua) of 60 mg/L (≈ 370 µM). It also gave an LC50 (Spodoptera exigua; Spodoptera exigua, foliar, 72 h) of 29 mg/L (≈ 179 µM), an Activity (Meloidogyne incognita [5]) of 0.38 g and an Activity (Meloidogyne incognita [6]) of 83%. For the same molecule, the Activity (Gossypium hirsutum) was 100 µg/mL, the Activity (Meloidogyne incognita [7]) was 5.5 g and the Activity (Meloidogyne incognita [8]) was 1.02 g. For the same molecule, the Activity (Meloidogyne incognita [9]) was 13%, the Activity (Meloidogyne incognita [10]) was 100% and the Activity (Pisum sativum [11]) was 60%. It also gave an Activity (Meloidogyne incognita [12]) of 83%, an Activity (Phaseolus lunatus [13]) of 80% and an Activity (Meloidogyne incognita [14]) of 5.5 g. For the same molecule, the Activity (Pisum sativum [15]) was 3.1 g, the Activity (Phaseolus lunatus [16]) was 80% and the Activity (Pisum sativum [17]) was 7 cm. The Activity (Pisum sativum [18]) was 3 g, the Activity (Meloidogyne incognita [19]) was 0.34 g and the Activity (Meloidogyne incognita [20]) was 100%. It also gave an Activity (Meloidogyne incognita [21]) of 38%, an Activity (Meloidogyne incognita [22]) of 1.59 g and an Activity (Phaseolus lunatus [23]) of 0.2 g. It also gave an Activity (Meloidogyne incognita [24]) of 88%, an Activity (Phaseolus lunatus [25]) of 1.26 g and an Activity (Phaseolus lunatus [26]) of 0.31 g. It also gave an LC90 (Meloidogyne incognita [27]) of 69.7 mg/L (≈ 430 µM) and an LC50 (Meloidogyne incognita [27]; Meloidogyne incognita, Juvenile stage, 168 h) of 10.2 mg/L (≈ 62.9 µM).
